# Test results: US20250179066A1, “ZWITTERIONIC ANTIBACTERIAL COMPOUNDS” (Hoffmann-La Roche Inc., priority 2022, published 2025)
# Structures can show the parent of a compound that is named as a salt.
# Test system: Acinetobacter baumannii ATCC17961
# Assay: Antimicrobial susceptibility testing: 90% growth inhibitory concentration (IC90) determination
# Format: cell-based
# Details: 90% growth inhibitory concentration against Acinetobacter baumannii ATCC17961, Iso-Sensitest broth, OD 600 nm over 16 h; read-out: ATCC 17961 IC90
# Summary of the method: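 OD600 monitored each minute over 16 h at 35±2° C for bacteria (~5×10^5 CFU/mL final) in Iso-Sensitest medium with 10-point twofold compound series (e.g. 10-0.0195 μM final). Concentration giving 90% growth inhibition in log phase reported as IC90.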
row,Structure (SMILES),IC90
1,"Cn1c(-c2cn(-c3ccc(N)cc3F)nc2C(F)(F)F)cnc1C(=O)Nc1ccc(C(=O)N2CCN(C(=O)CCC[N+](CCCN)(CCCN)CCCC(=O)O)CC2)c(Cl)c1 [Example 182, [4-[4-[4-[[5-[1-(4-amino-2-fluoro-phenyl)-3-(trifluoromethyl)pyrazol-4-yl]-1-methyl-imidazole-2-carbonyl]amino]-2-chloro-benzoyl]piperazin-1-yl]-4-oxo-butyl]-bis(3-aminopropyl)-(3-carboxypropyl)ammonium; 2,2,2-trifluoroacetate]",201 nM

# Same assay, conditions: Acinetobacter baumannii, ATCC17961, 16 h, 90% growth inhibitory concentration against Acinetobacter baumannii ATCC17961, Iso-Sensitest broth, OD 600 nm over 16 h; read-out: ATCC 17961 IC90
row,Structure (SMILES),IC90
1,"Cn1c(-c2cn(-c3ccc(NCCN(CCN)CCN)cn3)nc2C(F)(F)F)cnc1C(=O)Nc1ccc(C(=O)N2CCN(C(=O)C3CC[N+](CC(=O)O)(CC4CNC4)CC3)CC2)c(Cl)c1 (stereo not drawn) [Example 166, cis-2-[1-(azetidin-3-ylmethyl)-4-[4-[4-[[5-[1-[5-[2-[bis(2-aminoethyl)amino]ethylamino]-2-pyridyl]-3-(trifluoromethyl)pyrazol-4-yl]-1-methyl-imidazole-2-carbonyl]amino]-2-chloro-benzoyl]piperazine-1-carbonyl]piperidin-1-ium-1-yl]acetic acid;formic acid;formate]",152 nM
2,"Cn1c(-c2cn(-c3ccc4[nH]c(CC(N)=O)cc4n3)nc2C(F)(F)F)cnc1C(=O)Nc1ccc(C(=O)N2CCN(C(=O)[C@H]3CC[N@+](CC(=O)O)(CC4CNC4)CC3)CC2)c(Cl)c1 [Example 167, cis-2-[4-[4-[4-[[5-[1-[2-(2-amino-2-oxo-ethyl)-1H-pyrrolo[3,2-b]pyridin-5-yl]-3-(trifluoromethyl)pyrazol-4-yl]-1-methyl-imidazole-2-carbonyl]amino]-2-chloro-benzoyl]piperazine-1-carbonyl]-1-(azetidin-3-ylmethyl)piperidin-1-ium-1-yl]acetic acid;2,2,2-trifluoroacetate]",715 nM
3,"Cn1c(-c2cn(-c3cc4c(ccn4CC(N)=O)cn3)nc2C(F)(F)F)cnc1C(=O)Nc1ccc(C(=O)N2CCN(C(=O)[C@H]3CC[N@+](CC(=O)O)(CC4CNC4)CC3)CC2)c(Cl)c1 [Example 168, cis-2-[4-[4-[4-[[5-[1-[1-(2-amino-2-keto-ethyl)pyrrolo[3,2-c]pyridin-6-yl]-3-(trifluoromethyl)pyrazol-4-yl]-1-methyl-imidazole-2-carbonyl]amino]-2-chloro-benzoyl]piperazine-1-carbonyl]-1-(azetidin-3-ylmethyl)piperidin-1-ium-1-yl]acetic Acid.1:1 2,2,2-trifluoroacetate]",555 nM
4,"Cn1c(-c2cn(-c3ccc4c(cc(CO)n4CC#N)n3)nc2C(F)(F)F)cnc1C(=O)Nc1ccc(C(=O)N2CCN(C(=O)[C@H]3CC[N@+](CC(=O)O)(CC4CNC4)CC3)CC2)c(Cl)c1 [Example 169, cis-2-[1-(azetidin-3-ylmethyl)-4-[4-[2-chloro-4-[[5-[1-[1-(cyanomethyl)-2-methylol-pyrrolo[3,2-b]pyridin-5-yl]-3-(trifluoromethyl)pyrazol-4-yl]-1-methyl-imidazole-2-carbonyl]amino]benzoyl]piperazine-1-carbonyl]piperidin-1-ium-1-yl]acetic acid. 1:1 2,2,2-trifluoroacetate]",466 nM
5,"Cn1c(-c2cn(-c3ccc(N)cc3F)nc2C(F)(F)F)cnc1C(=O)Nc1ccc(C(=O)N2CCN(C(=O)[C@H]3CC[N@@+](CCCN)(CC(=O)O)CC3)CC2)c(Cl)c1 [Example 170, cis-2-[4-[4-[4-[[5-[1-(4-amino-2-fluoro-phenyl)-3-(trifluoromethyl)pyrazol-4-yl]-1-methyl-imidazole-2-carbonyl]amino]-2-chloro-benzoyl]piperazine-1-carbonyl]-1-(3-aminopropyl)piperidin-1-ium-1-yl]acetic acid. 1:1 2,2,2-trifluoroacetate]",199 nM
6,"Cn1c(-c2cn(-c3ccc4[nH]c(CO)cc4n3)nc2C(F)(F)F)cnc1C(=O)Nc1ccc(C(=O)N2CCN(C(=O)[C@H]3CC[N@@+](CCCN)(CC(=O)O)CC3)CC2)c(Cl)c1 [Example 171, cis-2-[1-(3-aminopropyl)-4-[4-[2-chloro-4-[[1-methyl-5-[1-(2-methylol-1H-pyrrolo[3,2-b]pyridin-5-yl)-3-(trifluoromethyl)pyrazol-4-yl]imidazole-2-carbonyl]amino]benzoyl]piperazine-1-carbonyl]piperidin-1-ium-1-yl]acetic acid. 1:1 2,2,2-trifluoroacetate]",281 nM
7,"CN(C)C(=O)c1c[nH]c2cc(-n3cc(-c4cnc(C(=O)Nc5ccc(C(=O)N6CCN(C(=O)[C@H]7CC[N@+](CC(=O)O)(CC8CNC8)CC7)CC6)c(Cl)c5)n4C)c(C(F)(F)F)n3)ncc12 [Example 172, cis-2-[1-(azetidin-3-ylmethyl)-4-[4-[2-chloro-4-[[5-[1-[3-(dimethylcarbamoyl)-1H-pyrrolo[3,2-c]pyridin-6-yl]-3-(trifluoromethyl)pyrazol-4-yl]-1-methyl-imidazole-2-carbonyl]amino]benzoyl]piperazine-1-carbonyl]piperidin-1-ium-1-yl]acetic acid. 1:1 2,2,2-trifluoroacetate]",194 nM
8,"Cn1c(-c2cn(-c3cc4[nH]ncc4cn3)nc2C(F)(F)F)cnc1C(=O)Nc1ccc(C(=O)N2CCN(C(=O)[C@H]3CC[N@+](CC(=O)O)(CC4CNC4)CC3)CC2)c(Cl)c1 [Example 173, cis-2-[1-(azetidin-3-ylmethyl)-4-[4-[2-chloro-4-[[1-methyl-5-[1-(1H-pyrazolo[4,3-c]pyridin-6-yl)-3-(trifluoromethyl)pyrazol-4-yl]imidazole-2-carbonyl]amino]benzoyl]piperazine-1-carbonyl]piperidin-1-ium-1-yl]acetic acid. 1:1 2,2,2-trifluoroacetate]",352 nM

# Now from value to compound:
row,IC90,Structure (SMILES)
1,430 nM,"Cn1c(-c2cn(-c3cc4c(ccn4CCO)cn3)nc2C(F)(F)F)cnc1C(=O)Nc1ccc(C(=O)N2CCN(C(=O)[C@H]3CC[N@+](CC(=O)O)(CC4CNC4)CC3)CC2)c(Cl)c1 [Example 174, cis-2-[1-(azetidin-3-ylmethyl)-4-[4-[2-chloro-4-[[5-[1-[1-(2-hydroxyethyl)pyrrolo[3,2-c]pyridin-6-yl]-3-(trifluoromethyl)pyrazol-4-yl]-1-methyl-imidazole-2-carbonyl]amino]benzoyl]piperazine-1-carbonyl]piperidin-1-ium-1-yl]acetic acid. 1:1 2,2,2-trifluoroacetate]"
2,88.1 nM,"CNc1ccc(-n2cc(-c3cnc(C(=O)Nc4ccc(C(=O)N5CCN(C(=O)[C@H]6CC[N@+](CC(=O)O)(CC7CNC7)CC6)CC5)c(Cl)c4)n3C)c(C(F)(F)F)n2)c(F)c1 [Example 176, cis-2-[1-(azetidin-3-ylmethyl)-4-[4-[2-chloro-4-[[5-[1-[2-fluoro-4-(methylamino)phenyl]-3-(trifluoromethyl)pyrazol-4-yl]-1-methyl-imidazole-2-carbonyl]amino]benzoyl]piperazine-1-carbonyl]piperidin-1-ium-1-yl]acetic acid. 1:1 formate]"
3,201 nM,"Cn1c(-c2cn(-c3cc4[nH]cc(C(=O)N5CCOCC5)c4cn3)nc2C(F)(F)F)cnc1C(=O)Nc1ccc(C(=O)N2CCN(C(=O)[C@H]3CC[N@+](CC(=O)O)(CC4CNC4)CC3)CC2)c(Cl)c1 [Example 177, cis-2-[1-(azetidin-3-ylmethyl)-4-[4-[2-chloro-4-[[1-methyl-5-[1-[3-(morpholine-4-carbonyl)-1H-pyrrolo[3,2-c]pyridin-6-yl]-3-(trifluoromethyl)pyrazol-4-yl]imidazole-2-carbonyl]amino]benzoyl]piperazine-1-carbonyl]piperidin-1-ium-1-yl]acetic acid. 1:1 2,2,2-trifluoroacetate]"
4,135 nM,"Cn1c(-c2cn(-c3ccc(NCCO)cc3F)nc2C(F)(F)F)cnc1C(=O)Nc1ccc(C(=O)N2CCN(C(=O)[C@H]3CC[N@+](CC(=O)O)(CC4CNC4)CC3)CC2)c(Cl)c1 [Example 178, cis-2-[1-(azetidin-3-ylmethyl)-4-[4-[2-chloro-4-[[5-[1-[2-fluoro-4-(2-hydroxyethylamino)phenyl]-3-(trifluoromethyl)pyrazol-4-yl]-1-methyl-imidazole-2-carbonyl]amino]benzoyl]piperazine-1-carbonyl]piperidin-1-ium-1-yl]acetic acid. 1:1 formate]"
5,95.8 nM,"Cn1c(-c2cn(-c3cc4[nH]cc(C(=O)N5CCC(F)(F)CC5)c4cn3)nc2C(F)(F)F)cnc1C(=O)Nc1ccc(C(=O)N2CCN(C(=O)[C@H]3CC[N@+](CC(=O)O)(CC4CNC4)CC3)CC2)c(Cl)c1 [Example 179, cis-2-[1-(azetidin-3-ylmethyl)-4-[4-[2-chloro-4-[[5-[1-[3-(4,4-difluoropiperidine-1-carbonyl)-1H-pyrrolo[3,2-c]pyridin-6-yl]-3-(trifluoromethyl)pyrazol-4-yl]-1-methyl-imidazole-2-carbonyl]amino]benzoyl]piperazine-1-carbonyl]piperidin-1-ium-1-yl]acetic acid. 1:1 2,2,2-trifluoroacetate]"
6,135 nM,"Cn1c(-c2cn(-c3cc4[nH]c(CO)cc4cn3)nc2C(F)(F)F)cnc1C(=O)Nc1ccc(C(=O)N2CCN(C(=O)[C@H]3CC[N@+](CC(=O)O)(CC4CNC4)CC3)CC2)c(Cl)c1 [Example 180, cis-2-[1-(azetidin-3-ylmethyl)-4-[4-[2-chloro-4-[[1-methyl-5-[1-(2-methylol-1H-pyrrolo[3,2-c]pyridin-6-yl)-3-(trifluoromethyl)pyrazol-4-yl]imidazole-2-carbonyl]amino]benzoyl]piperazine-1-carbonyl]piperidin-1-ium-1-yl]acetic acid. 1:1 2,2,2-trifluoroacetate]"
7,244 nM,"Cn1c(-c2cn(-c3ccc(N)cc3F)nc2C(F)(F)F)cnc1C(=O)Nc1ccc(C(=O)N2CCN(C(=O)C3CC[N+](CCCC(=O)O)(CC4CNC4)CC3)CC2)c(Cl)c1 (stereo not shown) [Example 181, 4-[4-[4-[4-[[5-[1-(4-amino-2-fluoro-phenyl)-3-(trifluoromethyl)pyrazol-4-yl]-1-methyl-imidazole-2-carbonyl]amino]-2-chloro-benzoyl]piperazine-1-carbonyl]-1-(azetidin-3-ylmethyl)piperidin-1-ium-1-yl]butanoic acid;formate]"
